Here are results for ten compounds from patent publication US12539292B2, “BRM targeting compounds and associated methods of use” (Arvinas Operations, Inc., priority 2018, dated 2026).

The assay has as its target T1, BRM (Homo sapiens, UniProt P51531).
T1 construct: In-Cell Western Screen of BRM Degradation in SW1573 Cells; endogenous in cells; host or cells: SW1573
Nature of the assay: In-cell Western screen of BRM degradation in SW1573 cells (Dmax and DC50). It counts as cell-based. In short, it runs like this: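 SW1573 cells were treated with compound overnight (18-20 h; final DMSO 0.1%), then fixed in 4% PFA, permeabilized with Triton X-100 and blocked. BRM was detected by in-cell Western using 800 nm anti-rabbit and 680 nm anti-mouse secondaries, and Dmax and DC50 were derived from the LI-COR Odyssey signal.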

Where [1] appears, read: BRM degradation, SW1573 cells, read-out: DC50.
The mark [2] stands for this setting: BRM degradation, SW1573 cells, tested at the top concentration of between 0.3 and 10 μM, read-out: Dmax (%) (% degraded).
Where [3] appears, read: SW1573, % degraded, when tested at the top concentration of between 0.3 and 10 μM, read-out: BRM Dmax (%).
The mark [4] stands for this setting: target protein degradation, read-out: BRM DC50.

Read-outs that look alike come from different tables or passages of the source.

T1 sequence (P51531 whole entry): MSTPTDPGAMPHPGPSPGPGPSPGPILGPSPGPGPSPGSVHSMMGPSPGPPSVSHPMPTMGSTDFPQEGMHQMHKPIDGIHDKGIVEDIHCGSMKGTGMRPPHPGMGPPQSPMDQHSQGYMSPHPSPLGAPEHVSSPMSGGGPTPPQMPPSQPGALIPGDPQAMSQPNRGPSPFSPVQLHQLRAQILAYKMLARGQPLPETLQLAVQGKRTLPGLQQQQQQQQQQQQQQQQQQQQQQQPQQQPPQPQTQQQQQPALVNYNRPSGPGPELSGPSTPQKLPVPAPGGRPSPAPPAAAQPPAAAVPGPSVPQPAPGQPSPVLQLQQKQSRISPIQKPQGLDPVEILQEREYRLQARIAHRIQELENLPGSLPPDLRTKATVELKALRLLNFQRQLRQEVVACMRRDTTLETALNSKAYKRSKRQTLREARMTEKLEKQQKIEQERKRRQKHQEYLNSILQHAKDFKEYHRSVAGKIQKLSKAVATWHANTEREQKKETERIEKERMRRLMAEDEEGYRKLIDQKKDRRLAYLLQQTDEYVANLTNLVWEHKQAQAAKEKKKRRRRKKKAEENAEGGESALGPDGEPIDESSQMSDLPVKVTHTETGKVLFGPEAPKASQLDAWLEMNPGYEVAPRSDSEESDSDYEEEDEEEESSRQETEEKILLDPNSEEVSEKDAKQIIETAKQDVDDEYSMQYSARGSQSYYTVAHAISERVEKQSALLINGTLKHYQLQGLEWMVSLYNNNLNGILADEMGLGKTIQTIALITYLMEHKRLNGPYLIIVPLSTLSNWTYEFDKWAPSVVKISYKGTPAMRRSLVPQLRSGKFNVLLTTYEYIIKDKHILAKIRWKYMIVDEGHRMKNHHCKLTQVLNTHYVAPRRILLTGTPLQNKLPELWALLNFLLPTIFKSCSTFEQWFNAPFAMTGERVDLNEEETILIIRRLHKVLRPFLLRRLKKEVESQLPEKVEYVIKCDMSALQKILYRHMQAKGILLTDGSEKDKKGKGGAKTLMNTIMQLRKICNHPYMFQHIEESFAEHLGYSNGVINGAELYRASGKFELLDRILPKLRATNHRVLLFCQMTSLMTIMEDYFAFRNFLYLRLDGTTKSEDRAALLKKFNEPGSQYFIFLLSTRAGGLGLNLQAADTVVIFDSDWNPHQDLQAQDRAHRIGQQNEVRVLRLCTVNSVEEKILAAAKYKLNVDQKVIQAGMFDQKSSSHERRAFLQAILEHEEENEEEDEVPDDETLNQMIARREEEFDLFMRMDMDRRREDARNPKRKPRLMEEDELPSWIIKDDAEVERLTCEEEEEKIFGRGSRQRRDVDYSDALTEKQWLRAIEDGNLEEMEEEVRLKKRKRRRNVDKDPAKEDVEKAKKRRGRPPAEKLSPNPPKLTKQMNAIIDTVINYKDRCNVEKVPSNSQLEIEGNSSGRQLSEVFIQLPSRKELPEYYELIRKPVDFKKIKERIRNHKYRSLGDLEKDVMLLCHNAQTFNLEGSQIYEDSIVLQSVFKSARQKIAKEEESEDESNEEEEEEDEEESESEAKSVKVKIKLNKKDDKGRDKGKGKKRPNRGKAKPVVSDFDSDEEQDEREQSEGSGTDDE

Consider `Cc1ncsc1-c1ccc([C@H](C)NC(=O)[C@@H]2C[C@@H](O)CN2C(=O)[C@H](c2cc(CCCN3CCN(CCOc4cc(N5C6CCC5CN(c5cc(-c7ccccc7O)nnc5N)C6)ccn4)CC3)no2)C(C)C)cc1` [compound 170, (2S,4R)-1-((2S)-2-(3-(3-(4-(2-((4-(3-(3-amino-6-(2-hydroxyphenyl)pyridazin-4-yl)-3,8-diazabicyclo[3.2.1]octan-8-yl)pyridin-2-yl)oxy)ethyl)piperazin-1-yl)propyl)isoxazol-5-yl)-3-methylbutanoyl)-4-hydroxy-N-((S)-1-(4-(4-methylthiazol-5-yl)phenyl)ethyl)pyrrolidine-2-carboxamide], for which the DC50 under setting [1] is 2.5 to 10 nM. The Dmax under setting [2] is above 75%.
Consider `Cc1ncsc1-c1ccc([C@H](C)NC(=O)[C@@H]2C[C@@H](O)CN2C(=O)[C@@H](c2cc(N3CCC(OC4CCN(C[C@H]5C[C@H](Oc6cc(N7C8CCC7CN(c7cc(-c9ccccc9O)nnc7N)C8)ccn6)C5)CC4)CC3)no2)C(C)C)cc1` [compound 474, (2S,4R)-1-((2R)-2-(3-(4-((1-(((1r,3r)-3-((4-(3-(3-amino-6-(2-hydroxyphenyl)pyridazin-4-yl)-3,8-diazabicyclo[3.2.1]octan-8-yl)pyridin-2-yl)oxy)cyclobutyl)methyl)piperidin-4-yl)oxy)piperidin-1-yl)isoxazol-5-yl)-3-methylbutanoyl)-4-hydroxy-N-((S)-1-(4-(4-methylthiazol-5-yl)phenyl)ethyl)pyrrolidine-2-carboxamide], for which the Dmax under setting [3] is above 75%. The DC50 under setting [4] was below 2.5 nM.
Consider `Cc1ncsc1-c1ccc([C@H](C)NC(=O)[C@@H]2C[C@@H](O)CN2C(=O)[C@H](c2cc(OCCN3CCN(CCC#CCn4cc(-c5cc(-c6ccccc6O)nnc5N)cn4)CC3)no2)C(C)C)cn1` [compound 197, (2S,4R)-1-((S)-2-(3-(2-(4-(5-(4-(3-amino-6-(2-hydroxyphenyl)pyridazin-4-yl)-1H-pyrazol-1-yl)pent-3-yn-1-yl)piperazin-1-yl)ethoxy)isoxazol-5-yl)-3-methylbutanoyl)-4-hydroxy-N-((S)-1-(6-(4-methylthiazol-5-yl)pyridin-3-yl)ethyl)pyrrolidine-2-carboxamide], for which, under setting [1], the DC50 was above 30 nM.
In the case of `Cc1ncsc1-c1ccc([C@H](C)NC(=O)[C@@H]2C[C@@H](O)CN2C(=O)[C@@H](c2cc(OCC#Cc3ccc(O[C@H]4C[C@H](Oc5cc(N6C7CCC6CN(c6cc(-c8ccccc8O)nnc6N)C7)ccn5)C4)cn3)no2)C(C)C)cn1` [compound 237, (2S,4R)-1-((2R)-2-(3-((3-(5-((1r,3R)-3-((4-(3-(3-amino-6-(2-hydroxyphenyl)pyridazin-4-yl)-3,8-diazabicyclo[3.2.1]octan-8-yl)pyridin-2-yl)oxy)cyclobutoxy)pyridin-2-yl)prop-2-yn-1-yl)oxy)isoxazol-5-yl)-3-methylbutanoyl)-4-hydroxy-N-((S)-1-(6-(4-methylthiazol-5-yl)pyridin-3-yl)ethyl)pyrrolidine-2-carboxamide], the DC50 under setting [1] is below 2.5 nM. Moreover, under setting [2], the Dmax is above 75%.
As for `Cc1ncoc1-c1ccc([C@H](C)NC(=O)[C@@H]2C[C@@H](O)CN2C(=O)[C@@H](c2cc(OCCN3CCN(CCOc4cc(N5C6CCC5CN(c5cc(-c7ccccc7O)nnc5N)C6)ccn4)CC3)no2)C(C)C)cn1` [compound 117, (2S,4R)-1-((2R)-2-(3-(2-(4-(2-((4-(3-(3-amino-6-(2-hydroxyphenyl)pyridazin-4-yl)-3,8-diazabicyclo[3.2.1]octan-8-yl)pyridin-2-yl)oxy)ethyl)piperazin-1-yl)ethoxy)isoxazol-5-yl)-3-methylbutanoyl)-4-hydroxy-N-((S)-1-(6-(4-methyloxazol-5-yl)pyridin-3-yl)ethyl)pyrrolidine-2-carboxamide], under setting [1], the 50% degradation concentration (DC50) lay within 2.5 to 10 nM. The Dmax (BRM degradation, SW1573 cells, when tested at the top concentration of between 0.3 and 10 μM, read-out: Dmax (%) (% degraded)) was above 75%.
On to `CC[C@H](NC(=O)[C@@H]1C[C@@H](O)CN1C(=O)[C@H](c1cc(OCCN2CCC(O[C@H]3C[C@H](Oc4cc(N5C6CCC5CN(c5cc(-c7ccccc7O)nnc5N)C6)ccn4)C3)CC2)no1)C(C)C)c1ccc(-c2scnc2C)cc1` [compound 350, (2S,4R)-1-((2S)-2-(3-(2-(4-((1r,3S)-3-((4-(3-(3-amino-6-(2-hydroxyphenyl)pyridazin-4-yl)-3,8-diazabicyclo[3.2.1]octan-8-yl)pyridin-2-yl)oxy)cyclobutoxy)piperidin-1-yl)ethoxy)isoxazol-5-yl)-3-methylbutanoyl)-4-hydroxy-N-((S)-1-(4-(4-methylthiazol-5-yl)phenyl)propyl)pyrrolidine-2-carboxamide], for which the half-maximal degradation concentration (DC50) under setting [1] is above 30 nM.
With `Cc1ncsc1-c1ccc([C@H](C)NC(=O)[C@@H]2C[C@@H](O)CN2C(=O)[C@H](c2cc(OCCCCN3CCN(CCCCOc4cc(N5C6CCC5CN(c5cc(-c7ccccc7O)nnc5N)C6)ccn4)CC3)no2)C(C)C)cc1` [compound 389, (2S,4R)-1-((2S)-2-(3-(4-(4-(4-((4-(3-(3-amino-6-(2-hydroxyphenyl)pyridazin-4-yl)-3,8-diazabicyclo[3.2.1]octan-8-yl)pyridin-2-yl)oxy)butyl)piperazin-1-yl)butoxy)isoxazol-5-yl)-3-methylbutanoyl)-4-hydroxy-N-((S)-1-(4-(4-methylthiazol-5-yl)phenyl)ethyl)pyrrolidine-2-carboxamide], the Dmax under setting [3] was above 75%. For the same compound, the DC50 under setting [4] was in the range of 10 to 30 nM.
Under “BRM degradation, SW1573 cells”, `Cc1ncsc1-c1ccc([C@H](C)NC(=O)[C@@H]2C[C@@H](O)CN2C(=O)[C@@H](c2cc(N3CCC(CN4CCC(O[C@H]5C[C@H](Oc6cc(N7CCN(c8cc(-c9ccccc9O)nnc8N)CC7)ccn6)C5)CC4)CC3)no2)C(C)C)cc1` [compound 693, (2S,4R)-1-((R)-2-(3-(4-((4-((1r,3r)-3-((4-(4-(3-amino-6-(2-hydroxyphenyl)pyridazin-4-yl)piperazin-1-yl)pyridin-2-yl)oxy)cyclobutoxy)piperidin-1-yl)methyl)piperidin-1-yl)isoxazol-5-yl)-3-methylbutanoyl)-4-hydroxy-N-((S)-1-(4-(4-methylthiazol-5-yl)phenyl)ethyl)pyrrolidine-2-carboxamide] yielded a DC50 below 2.5 nM.
As for `Cc1n[nH]c(C)c1-c1ccc([C@H](C)NC(=O)[C@@H]2C[C@@H](O)CN2C(=O)[C@@H](c2cc(OCCN3CCC(O[C@H]4C[C@H](Oc5cc(N6C7CCC6CN(c6cc(-c8ccccc8O)nnc6N)C7)ccn5)C4)CC3)no2)C(C)C)cc1` [compound 378, (2S,4R)-1-((2R)-2-(3-(2-(4-((1r,3R)-3-((4-(3-(3-amino-6-(2-hydroxyphenyl)pyridazin-4-yl)-3,8-diazabicyclo[3.2.1]octan-8-yl)pyridin-2-yl)oxy)cyclobutoxy)piperidin-1-yl)ethoxy)isoxazol-5-yl)-3-methylbutanoyl)-N-((S)-1-(4-(3,5-dimethyl-1H-pyrazol-4-yl)phenyl)ethyl)-4-hydroxypyrrolidine-2-carboxamide], the maximal degradation (Dmax) under setting [3] is above 75%. The DC50 under setting [4] is below 2.5 nM.
With `Cc1ncsc1-c1ccc(C2(NC(=O)[C@@H]3C[C@@H](O)CN3C(=O)[C@H](c3cc(OCCN4CCN(CCOc5cc(N6C7CCC6CN(c6cc(-c8ccccc8O)nnc6N)C7)ccn5)CC4)no3)C(C)C)CN(C)C2)cc1` [compound 228, (2S,4R)-1-((2S)-2-(3-(2-(4-(2-((4-(3-(3-amino-6-(2-hydroxyphenyl)pyridazin-4-yl)-3,8-diazabicyclo[3.2.1]octan-8-yl)pyridin-2-yl)oxy)ethyl)piperazin-1-yl)ethoxy)isoxazol-5-yl)-3-methylbutanoyl)-4-hydroxy-N-(1-methyl-3-(4-(4-methylthiazol-5-yl)phenyl)azetidin-3-yl)pyrrolidine-2-carboxamide], under setting [1], the half-maximal degradation concentration (DC50) was above 30 nM.

For orientation: DC50 means the concentration at which degradation of the target reaches its halfway point. In general, Dmax refers to the largest share of the target that was removed.
